Measured values taken from patent US10688093B2, “Methods, compositions, and uses of novel Fyn kinase inhibitors” (priority 2015, dated 2020).

Molecular target: full-length recombinant human FYN A (Homo sapiens (Human), UniProt P06241)
Experiment: ADP-Glo Kinase Assay of FYN kinase inhibition
Format: biochemical
Conditions: primary screen, initial compounds
Description: The chemical library was comprised of the SoftFocus ATP-competitive hinge binding compounds described by Harris, C. J., Hill, R. D., Sheppard, D. W., et al., The Design and Application of Target-Focused Compound Libraries. Combinatorial Chemistry and High Throughput Screening 14:521-31 (2011). The specific pharmacore chemistries included SFK52 comprising 6-[R2]-3-[R1]imidazo[1,2-b] pyridazine compounds, SFK33 comprising N-(3-[R2] imidazo [1,2-b] pyridazin-6-yl) [R1] amine compounds, SFK49 comprising N-(5-[R2] imidazo [2,1-b][1,3,4] thiadiazol-2-yl)[R1]-amine compounds, SFK 40 comprising 5-[R2]-3-[R1] pyridin-2-amine compounds, SFK43 comprising 6-[R2]-3-[R1]imidazo[1,2-a]pyrazine compounds, and SFK63. The chemical structures of the initial 600 potential kinase inhibitors are presented in Table 3, with those chosen for additional analysis presented in Table 4. Comparison of the compounds presented in Table 1 and those of Tables 2, 3 and 4, illustrate the novelty of the chemical structures claimed herein.
FYN kinase (10 micrograms) was from the FYN A Kinase Enzyme System (V3571, Promega UK Ltd.), a full-length recombinant human FYN A containing an N-terminal GST tag of about 85 kDa, expressed by bacullovirus in […] insect cells, supplied at a concentration of 0.1 microgram/microliter in 5×reaction buffer. The FYN substrate, a 12 amino acid peptide of the sequence […], containing a single tyrosine phosphorylation site, was custom synthesized (Peptide Synthetics, Peptide Protein Research, Fareham, UK) and supplied as a 4 mg/ml aqueous solution. All other reagents were obtained from Sigma (Sigma-Aldrich, Gillingham, Dorset, UK), with the exception of UltraPure ATP (V9102, Promega UK Ltd.) and the ATP-competitive broad spectrum protein kinase inhibitor staurosporine (569397, Merck Millipore, Watford, Hertfordshire, UK), or as otherwise indicated.
The assay procedure determines the IC50 of each potential FYN kinase inhibitor by measuring the enzyme catalyzed ATP-dependent phosphorylation of the FYN substrate peptide. The ADP-Glo™ Kinase Assay is specifically designed to quantify kinase activity by measuring the ADP produced in the reaction The reaction buffer comprises 40 mM Tris.HCl (pH 7.5), 20 mM MgCl2, 0.1 mg/ml BSA and 5 microM DTT. Individual compounds within the chemical library were dissolved in DMSO at known concentrations. Briefly, 2.5 microliters of reaction buffer containing 3 picograms of FYN kinase and serial dilutions of each potential FYN kinase inhibitor (9 3-fold dilutions of a 10 micromolar top sample) are placed into each well of a 384 well microtiter plate and incubated at room temperature for 30 minutes. An additional 2.5 microliters of reaction buffer containing 100 picograms of the FYN substrate and 12.5 picomoles of ATP are then added to each well and the reaction carried out for 90 minutes at room temperature. The reactions are terminated by addition of 5 microliters of the ADP-Glo™ Reagent component of the ADP-Glo™ Kinase Assay kit to each well. The ADP-Glo™ Reagent comprises an ATP-dependent adenylate cyclase, an inorganic pyrophosphatase and an excess of staurosporine. The adenylate cyclase converts the remaining ATP to cAMP and pyrophospahte, the pyrophosphatase converts the pyrophosphate to phosphate and the staurosporine inhibits the activity of the FYN kinase, the net effect is to remove all residual ATP while preserving the ADP produced by FYN kinase. The terminated reactions are incubated for 40 minutes at room temperature, prior to addition of the Kinase Detection Reagent component of the ADP-Glo™ Kinase Assay kit to each well. The Kinase Detection Reagent comprises pyruvate kinase, phosphoenol pyruvate (PEP), luciferin and luciferase. The pyruvate kinase converts PEP to pyruvate and in the process generates ATP from the residual ADP present in the terminated reaction. […]

Sequence of full-length recombinant human FYN A (P06241 whole entry): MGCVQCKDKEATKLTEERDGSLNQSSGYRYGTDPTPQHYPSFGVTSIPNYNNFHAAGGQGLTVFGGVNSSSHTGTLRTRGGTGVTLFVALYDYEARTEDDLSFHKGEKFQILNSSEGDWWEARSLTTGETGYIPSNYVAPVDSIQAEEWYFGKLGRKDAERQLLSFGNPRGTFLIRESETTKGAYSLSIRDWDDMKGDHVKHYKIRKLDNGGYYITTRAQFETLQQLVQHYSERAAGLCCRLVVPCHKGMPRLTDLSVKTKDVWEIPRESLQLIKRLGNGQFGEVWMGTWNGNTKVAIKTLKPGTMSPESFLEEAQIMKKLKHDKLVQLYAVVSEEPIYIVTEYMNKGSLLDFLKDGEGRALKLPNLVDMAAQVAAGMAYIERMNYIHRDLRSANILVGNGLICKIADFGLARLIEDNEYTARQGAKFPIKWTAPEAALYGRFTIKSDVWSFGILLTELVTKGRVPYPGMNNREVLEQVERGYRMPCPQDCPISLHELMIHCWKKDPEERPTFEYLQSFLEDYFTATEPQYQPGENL

| IC50 [nM] | Structure (SMILES) |
| --- | --- |
| 8340 | COc1ccc(-c2cnc3ccc(NCc4cccc(Cl)c4)nn23)cn1 [229_0223_0311, N-[(3-chlorophenyl)methyl]-3-(6-methoxy-3-pyridyl)imidazo [1,2-b]pyridazin-6-amine] |
| 3520 | COc1cc(-c2cnc3ccc(NCc4cccc(Cl)c4)nn23)ccc1O [229_0223_0314, 4-[6-[(3-chlorophenyl)methylamino]imidazo[1,2-b]pyridazin-3-yl]-2-methoxy-phenol] |
| 3410 | Nc1ccc(-c2cnc3ccc(NCc4cccc(Cl)c4)nn23)cc1 [229_0223_0333, 3-(4-aminophenyl)-N-[(3-chlorophenyl)methyl]imidazo [1,2-b]pyridazin-6-amine] |
| 2440 | OCc1ccc(-c2cnc3ccc(NCc4ccc(F)cc4)nn23)cc1 [229_0224_0285, [4-[6-[(4-fluorophenyl)methylamino]imidazo[1,2-b]pyridazin-3-yl]phenyl] methanol] |
| 932 | CCCNc1ccc2ncc(-c3cccc(N)c3)n2n1 [229_0226_0005, 3-(3-aminophenyl)-N-propyl-imidazo[1,2-b]pyridazin-6-amine] |
| 2050 | CCCNc1ccc2ncc(-c3ccc4c(c3)OCO4)n2n1 [229_0226_0068, 3-(1,3-benzodioxol-5-yl)-N-propyl-imidazo[1,2-b]pyridazin-6-amine] |
| 4040 | CCCNc1ccc2ncc(-c3ccsc3)n2n1 [229_0226_0074, N-propyl-3-(3-thienyl)imidazo [1,2-b]pyridazin-6-amine] |
| 519 | CCCNc1ccc2ncc(-c3ccc(OC)c(OC)c3)n2n1 [229_0226_0079, 3-(3,4-dimethoxy-phenyl)-N-propyl-imidazo[1,2-b]pyridazin-6-amine] |
| 629 | CCCNc1ccc2ncc(-c3cccc(NC(C)=O)c3)n2n1 [229_0226_0081, N-[3-[6-(propylamino)imidazo[1,2-b]pyridazin-3-yl]phenyl] acetamide] |
| 9770 | CCCNc1ccc2ncc(-c3ccc(C(=O)O)cc3)n2n1 [229_0226_0140, 4-[6-(propylamino)imidazo[1,2-b]pyridazin-3-yl]benzoic acid] |
| 5430 | CCCNc1ccc2ncc(-c3ccc(OC)cc3)n2n1 [229_0226_0280, 3-(4-methoxyphenyl)-N-propyl-imidazo[1,2-b]pyridazin-6-amine] |
| 930 | CCCNc1ccc2ncc(-c3cccc(O)c3)n2n1 [229_0226_0284, 3-[6-(propylamino)imidazo[1,2-b]pyridazin-3-yl]phenol] |
| 2220 | CCCNc1ccc2ncc(-c3cccc(OC)c3)n2n1 [229_0226_4140, 3-(3-methoxyphenyl)-N-propyl-imidazo[1,2-b]pyridazin-6-amine] |
| 367 | CCCNc1ccc2ncc(-c3cccc(C(C)=O)c3)n2n1 [229_0226_4145, 1-[3-[6-(propylamino)imidazo[1,2-b]pyridazin-3-yl]phenyl] ethanone] |
| 1010 | O=C(O)c1ccc(-c2cnc3ccc(NCc4ccc(Cl)c(Cl)c4)nn23)cc1 [229_0227_0140, 4-[6-[(3,4-dichlorophenyl)methylamino]imidazo[1,2-b]pyridazin-3-yl]benzoic acid] |
| 5670 | Oc1ccc(-c2cnc3ccc(NCc4ccc5c(c4)OCO5)nn23)cc1 [229_0236_0080, 4-[6-(1,3-benzodioxol-5-ylmethyl-amino)imidazo[1,2-b]pyridazin-3-yl]phenol] |
| 4060 | c1ccc(-c2cnc3ccc(NCc4ccncc4)nn23)cc1 [229_0237_0061, 3-phenyl-N-(4-pyridylmethyl) imidazo[1,2-b]pyridazin-6-amine] |
| 6450 | c1ccc2oc(-c3cnc4ccc(NCc5ccncc5)nn34)cc2c1 [229_0237_0073, 3-(benzofuran-2-yl)-N-(4-pyridylmethyl) imidazo[1,2-b]pyridazin-6-amine] |
| 746 | Nc1cccc(-c2cnc3ccc(NC4CCOCC4)nn23)c1 [229_0242_0005, 3-(3-aminophenyl)-N-tetrahydro-pyran-4-yl-imidazo[1,2-b]pyridazin-6-amine] |
| 547 | COc1ccc(-c2cnc3ccc(NC4CCOCC4)nn23)cc1OC [229_0242_0079, 3-(3,4-dimethoxy-phenyl)-N-tetra-hydropyran-4-yl-imidazo[1,2-b]pyridazin-6-amine] |
| 1170 | c1cc2cc(-c3cnc4ccc(NC5CCOCC5)nn34)ccc2[nH]1 [229_0242_0204, 3-(1H-indol-5-yl)-N-tetrahydropyran-4-yl-imidazo[1,2-b]pyridazin-6-amine] |
| 3130 | Nc1ccc(-c2cnc3ccc(NC4CCOCC4)nn23)cc1 [229_0242_0333, 3-(4-aminophenyl)-N-tetrahydropyran-4-yl-imidazo[1,2-b]pyridazin-6-amine] |
| 4010 | COc1ccc(CNc2ccc3ncc(-c4ccc(O)c(OC)c4)n3n2)cc1 [229_0244_0314, 2-methoxy-4-[6-[(4-methoxyphenyl)methylamino]imidazo[1,2-b]pyridazin-3-yl]phenol] |
| 929 | OCCCNc1ccc2ncc(-c3ccc4c(c3)OCO4)n2n1 [229_0248_0068, 3-[[3-(1,3-benzodioxol-5-yl)imidazo[1,2-b]pyridazin-6-yl]amino] propan-1-ol] |
| 2720 | OCCCNc1ccc2ncc(-c3ccc4[nH]ccc4c3)n2n1 [229_0248_0204, 3-[[3-(1H-indol-5-yl)imidazo[1,2-b]pyridazin-6-yl]amino] propan-1-ol] |
| 3410 | OCCCNc1ccc2ncc(-c3cccc(C(F)(F)F)c3)n2n1 [229_0248_0312, 3-[[3-[3-(trifluoro-methyl)phenyl]imidazo[1,2-b]pyridazin-6-yl]amino] propan-1-ol] |
| 5540 | OCCCNc1ccc2ncc(-c3ccc(Oc4ccccc4)cc3)n2n1 [229_0248_1029, 3-[[3-(4-phenoxyphenyl)imidazo[1,2-b]pyridazin-6-yl]amino] propan-1-ol] |
| 1810 | CC(C)[C@@H](CO)Nc1ccc2ncc(-c3cccc(N)c3)n2n1 [229_0254_0005, (2S)-2-[[3-(3-aminophenyl)imidazo[1,2-b]pyridazin-6-yl]amino]-3-methyl-butan-1-ol] |
| 1820 | CC(C)[C@@H](CO)Nc1ccc2ncc(-c3ccc4c(c3)OCO4)n2n1 [229_0254_0068, (2S)-2-[[3-(1,3-benzodioxol-5-yl)imidazo[1,2-b]pyridazin-6-yl]amino]-3-methyl-butan-1-ol] |

| Structure (SMILES) | IC50 [nM] |
| --- | --- |
| c1cc(-c2cnc3ccc(NCc4ccc5c(c4)OCO5)nn23)ccn1 [229_0236_0069, N-(1,3-benzodioxol-5-ylmethyl)-3-(4-pyridyl)imidazo [1,2-b]pyridazin-6-amine] | 380 |
| CC(=O)Nc1cccc(-c2cnc3ccc(NC4CCOCC4)nn23)c1 [229_0242_0081, N-[3-[6-(tetrahydro-pyran-4-ylamino)imidazo[1,2-b]pyridazin-3-yl]phenyl] acetamide] | 588 |
| COc1cc(-c2cnc3ccc(NC4CCOCC4)nn23)cc(OC)c1OC [229_0242_0087, N-tetrahydropyran-4-yl-3-(3,4,5-trimethoxy-phenyl) imidazo[1,2-b]pyridazin-6-amine] | 617 |
| COc1cccc(-c2cnc3ccc(NC4CCOCC4)nn23)c1 [229_0242_4140, 3-(3-methoxy-phenyl)-N-tetrahydro-pyran-4-yl-imidazo[l,2-b]pyridazin-6-amine] | 870 |
| COc1cc(-c2cnc3ccc(NCCCO)nn23)ccc1O [229_0248_0314, 4-[6-(3-hydroxy-propylamino)imidazo[1,2-b]pyridazin-3-yl]-2-methoxy-phenol] | 329 |
| COc1ccc(-c2cnc3ccc(N[C@H](CO)C(C)C)nn23)cc1OC [229_0254_0079, (2S)-2-[[3-(3,4-dimethoxyphenyl)imidazo[1,2-b]pyridazin-6-yl]amino]-3-methyl-butan-1-ol] | 778 |
